Assay results as given in the NIST ThermoML archive (doi:10.1021/je900830s).
Numbers after ± are expanded uncertainties.

Conditions: 101.33 kPa, Liquid, Buoyancy - hydrostatic balance with magnetic suspension - one sinker

Work on `CCO` [ethanol] yielded a mass density (313.2 K) of 768.9 ± 3.5 kg/m3, a mass density (338.2 K) of 752.7 ± 1.7 kg/m3 and a mass density (343.2 K) of 732.4 ± 1.2 kg/m3.
